From US5663181A, “Naphthyridine derivatives, their methods of preparation and pharmaceutical compositions in which they are present, useful especially as antiproliferative drugs” (Laboratoires UPSA, priority 1993, dated 1997)
pIC50: −log10 of the molar value.

Test system: balb c 3T3 fibroblasts
Assay: Inhibition of PDGF-stimulated balb c 3T3 fibroblast proliferation (3H-thymidine incorporation)
Format: cell-based
Settings: Mus musculus, BALB/c3T3; ^3 H-thymidine incorporation stimulated by PDGF in balb c 3T3 fibroblasts
Protocol: Measurement of inhibition of the balb c 3T3 fibroblast proliferation induced by a growth factor […]
Inhibition of the cell proliferation induced by a growth factor (for example PDGF) is evaluated by measuring the ^3 H-thymidine incorporation into balb c 3T3 fibroblasts.
The balb c 3T3 fibroblasts are cultivated at 37° C. with 5% of CO2 up to the point of subconfluence and are then placed for 24 hours under rest conditions in a serum-impoverished medium. They are subsequently pretreated for one hour with the test molecule and then stimulated for 24 hours with a growth factor (for example PDGF). ^3 H-Thymidine is incorporated over the last 2 hours. All these steps are performed at 37° C. with 5% of CO2.
The reaction is terminated by sucking off the reaction medium, detaching the cells and then filtering the lyzed cells through glass fiber filters.
The results are expressed as the percentage inhibition of the stimulation of ^3 H-thymidine incorporation due to the action of the growth factor.

SMILES	pIC50
N#CC(=Cc1cc2cccnc2n(-c2cc(Cl)cc(Cl)c2)c1=O)c1ccncc1 [Example 81, 3-[1-(3,5-dichlorophenyl)-1,2-dihydro-2-oxo-1,8-naphthyridin-3-yl]-2-(4-pyridyl)prop-2-enenitrile]	6.70
N#CC(=Cc1cc2cccnc2n(-c2cc(Cl)cc(Cl)c2)c1=O)c1cccnc1 [Example 78, 3-[1-(3,5-dichlorophenyl)-1,2-dihydro-2-oxo-1,8-naphthyridin-3-yl]-2-(3-pyridyl)prop-2-enenitrile]	6.52
